Test results published in paper PMC6804079, “Investigation of 5’-Norcarbocyclic Nucleoside Analogues as Antiprotozoal and Antibacterial Agents” (Molecules, 2019).
Values after ≈ are worked out from the molar mass of the structure shown. Values joined by “and” are separate entries in the source; they are usually repeats but may differ in a detail not shown here. Equal entries are not always repeated.

Legend:
[1] = tested on: Tbb-5FURes; assay: microbe, parasite or virus in culture; format: cell-based, Trypanosoma brucei brucei; details: Trypanosoma brucei, read-out: T. Brucei, EC50, Tbb-5FURes
[2] = tested on: M. tuberculosis ATCC 25,177 (H37Ra); assay: microbe, parasite or virus in culture; format: cell-based, Mycobacterium tuberculosis; details: Mycobacterium tuberculosis, read-out: M. Tuberculosis 25,177 MIC
[3] = tested on: Trypanosoma and Leishmania; design: method as in PMID 28571825; details: equivalent activity against both pathogens; cited from earlier work
[4] = tested on: M. tuberculosis MS-115; assay: microbe, parasite or virus in culture; format: cell-based; details: Mycobacterium tuberculosis, MS115, read-out: M. Tuberculosis MS-115 MIC
[5] = tested on: L. mexicana 5FURes (Lmex5FURes); assay: microbe, parasite or virus in culture; details: Leishmania mexicana, read-out: L. Mexicana 5FUR, EC50
Procedure: Promastigotes of Leishmania mexicana strain MNY/BZ/62/M379 was cultured in a minimal essential medium, HO-MEMO-MEME, supplemented with 10% FBS and 1% of a penicillin/streptomycin solution (Gibco) as described previously [39] at 25 °C. The L. mexicana 5FURes strain was the same strain but adapted in vitro to high levels of 5FU exactly as described for T. brucei [12].
The resazurin assay for L. mexicana promastigotes was performed exactly as for T. b. brucei, except that incubation times of 72 and 48 h were used before and after the addition of resazurin, respectively, due to the slower metabolism of the dye by Leishmania promastigotes [42].

[6] = tested on: U-937 cells; assay: U-937 cytotoxicity (XTT); format: cell-based; details: 6 days incubation
Procedure: The U-937 cells used in the cytotoxicity evaluation were obtained from the AIDS Research and Reference Program. The cells were cultured as indicated by the supplier in RPMI-1640 supplemented with 10% heat inactivated FBS, 1% penicillin/streptomycin solution, and 1% L-glutamine.
U-937 cells plated at 2.5 × 10^3 cells/well in a volume of 100 µL were incubated with serially diluted test compounds in a volume of 100 µL for 6 days at 37 °C/5% CO2. Following the incubation, the cells were stained by adding 50 μL tetrazolium dye XTT (Sigma) solution at 5 mg/mL to determine cellular viability and read at 460/650 nm on a spectrophotometer. Toxicity values were calculated using linear regression analysis.

[7] = tested on: M. tuberculosis H37Rv; assay: microbe, parasite or virus in culture; format: cell-based; details: Mycobacterium tuberculosis, control drugs at critical concentrations
[8] = tested on: T. b. brucei strain Lister 427 (s427-WT); assay: resazurin EC50 assay, T. b. brucei wild-type bloodstream forms; format: cell-based, Trypanosoma brucei brucei; details: Trypanosoma brucei, 72 h, 48 h + 24 h resazurin, average and SEM, at least three determinations, NE = no effect on cell viability at 100 µM
[9] = tested on: T. brucei B48; assay: microbe, parasite or virus in culture; format: cell-based, Trypanosoma brucei brucei; details: Trypanosoma brucei, read-out: T. Brucei, EC50, B48
[10] = tested on: T. brucei 2T1 PYR6-5 −/−; assay: microbe, parasite or virus in culture; format: cell-based, Trypanosoma brucei brucei; details: Trypanosoma brucei, read-out: T. Brucei, EC50, 2T1 PYR6-5 −/−

For `CCCCCCCCCCCCC#Cc1cn([C@H]2C=C[C@@H](O)C2)c(=O)n([C@H]2C=C[C@@H](O)C2)c1=O` [Compound 1, 1-[4′-Hydroxy-2′-cyclopenten-1′-yl]-3-(4′′-hydroxy-2′′-cyclopent-en-1′′-yl)-5-tetradecynyluracil], the EC50 [1] is listed as 7.5 ± 0.1 µM, the MIC [2] is listed as 250 µM and 117 µg/mL and the EC50 [3] is listed as 8 to 11.9 µM. The MIC [4] was over 50 µg/mL, the EC50 [5] was 11.4 ± 0.3 µM and the “U-937 Cells TC50” value [6] was 66.3 µM. It also gave an MIC [7] of 50 µg/mL (≈ 107 µM), an EC50 [8] of 8 ± 0.1 µM and an EC50 [9] of 9 ± 0.1 µM. It also gave an EC50 [10] of 9.2 ± 0.4 µM.
